Legend:
[1] = test system: patients with advanced NSCLC following failure of at least one prior chemotherapy regimen; test: Open-label Phase II predictive marker identification study of Tarceva monotherapy, response by RECIST and survival; type: in vivo, human; conditions: all enrolled patients n=264; oral 150 mg/day
Protocol: The selection of this dose was based on pharmacokinetic parameters, as well as the safety and tolerability profile of this dose observed in Phase I, II and III trials in heavily pre-treated patients with advanced cancer. Drug levels seen in the plasma of patients with cancer receiving the 150 mg/day dose were consistently above the average plasma concentration of 500 ng/ml targeted for clinical efficacy.
This was an open-label, predictive marker identification Phase II study. The study was conducted in approximately 26 sites in about 12 countries. 264 patients with advanced NSCLC following failure of at least one prior chemotherapy regimen were enrolled over a 12 month period. […] Dose reductions were permitted based on tolerability to drug therapy. Clinical and laboratory parameters were assessed to evaluate disease control and toxicity. Treatment continued until disease progression, unacceptable toxicity or death. The study design is depicted in FIG. 1.
The RECIST (Uni-dimensional Tumor Measurement) criteria were used to evaluate response. […]
A regular status check every 3 months was performed either by a patient's visit to the clinic or by telephone. All deaths were recorded. […]

[2] = patients with cancer, 150 mg/day dose; 500 ng/ml is the average concentration targeted for clinical efficacy; cited from earlier work

For `C#Cc1cccc(Nc2ncnc3cc(OCCOC)c(OCCOC)cc23)c1` [Erlotinib, erlotinib], the Median overall survival [1] is listed as 7.6 (CI 7-9) months, the median progression-free survival [1] is listed as 11.3 (CI 8-12) weeks and the “drug level in plasma” value [2] is listed as > 0.5 µg/mL.
